# Experimental data: patent US20220144775A1, “HYDRAZIDE COMPOUND AND KINASE INHIBITOR” (NISSAN CHEMICAL CORPORATION, priority 2019, published 2022)
# Experiments:
# small intestine organoid = experiment: Mouse small intestine organoid culture; type: cell-based; conditions: day 9 of culture, 10 μM
# Description: 7-Week-old male C57BL/6N mice were purchased from CHARLES RIVER LABORATORIES JAPAN, INC. After the acclimation period, the small intestine and colon were isolated under anesthesia. Crypts were collected from the excised small intestine and colon according to the protocol of IntestiCult (trade mark) Organoid Growth Medium. To be specific, the inside of the intestine was washed with 1 mL of cold PBS, then incised vertically, and washed 3 times with 1 mL of cold PBS. The intestine was transferred to a 10 cm petri dish filled with cold PBS, washed thoroughly again, and transferred to a 50 mL tube containing 15 mL of cold PBS while cutting into 2 mm pieces. […] The number of crypts contained in 10 μL of the suspension was counted under a microscope to determine the concentration, and the mixture was dispensed into a 15 mL tube at 800 crypts/tube, and centrifuged at 4° C., 200 g×5 min. […] Organoids were image-analyzed over time by Cell3iMager duos (SCREEN Holdings Co., Ltd.). For image analysis, the number of crypts having a diameter of 30-200 μm was counted as the number of seeded crypts on the first day of culture, and then those grown to 70 μm or more over time were counted as organoids, and the organoid formation rate from the crypts was calculated. At that time, the average diameter of the organoids measured at the same time was calculated. […]
# [1] = system: mouse partial liver resection model; experiment: Liver weight increase in mouse partial liver resection model; type: in vivo; conditions: BALB/c mice; intraperitoneal, 4 times every 24 hr; about 30% of the liver removed; FIG. 2
# Description: A partial liver resection model in which the mouse liver was partially resected was prepared as described below, and the liver weight increasing effect of the compound of the present invention was evaluated by comparing the liver weight immediately after the resection with the liver weight 3 days after the resection.
# A 0.5 w/v % methylcellulose aqueous solution (0.5% MC, manufactured by FUJIFILM Wako Pure Chemical Corporation) and A-007 were evaluated. A-007 was suspended in 0.5% MC, and prepared at a final concentration of 1 mg/mL.
# Mice, BALB/cAnNCrlCrlj, 5-week-old, male, were purchased from CHARLES RIVER LABORATORIES JAPAN. In terms of the 0.5% MC administration-control group, 0.5% MC 10 mL/kg was administered intraperitoneally once, and 24 hr later, the entire liver was isolated and the liver weight was measured (n=3). As used herein, the control group means a group without removal of the liver. […]
# Immediately after the second administration, the abdomen was opened under isoflurane (manufactured by Intervet Co., Ltd.) anesthesia, and the root of liver lobe was ligated with a suture thread, and about 30% of the liver was finally removed by excising the tip of the ligated liver lobe. After that, the abdomen was closed, and 24 hr after the final administration, the entire liver was removed and the liver weight was measured (n=3). […]
smiles,measurement,setting,value
CC/C(=N\NC(=O)C(C)Nc1cncc(F)c1)c1ccc(O)c(C)c1O (stereo not drawn) [A-007],formation rate (%),small intestine organoid; DMSO 39,70%
same,average diameter (μm),small intestine organoid; DMSO 202,257 μm
same,changes in the liver weight ratio,[1],has an action of promoting a liver weight increase
